Test results taken from patent publication US8557816B2, “Aurora kinase modulators and method of use” (Amgen Inc., priority 2007, dated 2013).

What was measured:
[1] = target: T1, AuroraA-TPX2 (Homo sapiens, UniProt O14965); experiment: AuroraA-TPX2 Homogeneous Time Resolved Fluorescent (HTRF) kinase assay; assay type: biochemical; details: average; read-out: AurA_IC50_IP (uM Avg)
T1 construct: 20 μL of AuroraA-TPX2 KD GST for a final volume of about 41 μL; GST
T1 sequence (O14965 133-383 limits assumed): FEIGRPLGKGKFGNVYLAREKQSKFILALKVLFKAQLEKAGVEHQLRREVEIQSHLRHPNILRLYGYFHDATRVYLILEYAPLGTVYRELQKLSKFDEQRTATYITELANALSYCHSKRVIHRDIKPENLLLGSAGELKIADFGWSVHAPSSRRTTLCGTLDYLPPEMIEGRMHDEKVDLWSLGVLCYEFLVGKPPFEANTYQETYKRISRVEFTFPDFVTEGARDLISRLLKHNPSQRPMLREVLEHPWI
T1 sequence (Q9ULW0 1-43 partner limits assumed): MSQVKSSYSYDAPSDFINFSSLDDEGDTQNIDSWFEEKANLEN
Description: AuroraA-TPX2-Homogeneous Time Resolved Fluorescent (HTRF) Kinase Assay:
The Aurora-A HTRF assay begins with Aurora-A in the presence of ATP phosphorylating the biotinylated peptide PLK. The reaction incubates for about 120 min. Detection reagents are added to quench the reaction. These agents stop the reaction by diluting out the enzyme and chelating the metals due to the presence of EDTA. After addition, the assay is incubated overnight to allow the detection reagents to equilibrate.
The AuroraA HTRF assay comprises 1 μL of compound in 100% DMSO, 20 μL of ATP and biotinylated PLK, and 20 μL of AuroraA-TPX2 KD GST for a final volume of about 41 μL. The final concentration of PLK is about 1 μM. […] Buffer conditions are as follows: 60 mM HEPES pH 7.5, 25 mM NaCl, 10 mM MgCl, 2 mM DTT, 0.05% BSA.
(§1) The assay is quenched and stopped with 160 μL of detection reagent. Detection reagents are as follows: Buffer made of 50 mM Tris, pH 7.5, 100 mM NaCl, 3 mM EDTA, 0.05% BSA, 0.1% Tween20. Added to this buffer prior to reading is Steptavidin allophycocyanin (SA-APC) at a final conc in the assay of 0.0005 mg/mL, and europilated anti-phosphoPLK Ab (Eu-anti-PLK) at a final conc of 0.02 nM.
The assay plate is read in either a Discovery or a RubyStar. The eu-anti-PLK is excited at 320 nm and emits at 615 nm to excite the SA-APC which in turn emits at 655 nm.

[2] = target: T2, AuroraB (Homo sapiens, UniProt Q96GD4); experiment: AuroraB Homogeneous Time Resolved Fluorescent (HTRF) kinase assay; assay type: biochemical; details: average; read-out: AurB_IC50_IP (uM Avg)
T2 construct: 20 μL of AuroraB FL H is for a final volume of 41 μL; His
T2 sequence (Q96GD4 whole entry): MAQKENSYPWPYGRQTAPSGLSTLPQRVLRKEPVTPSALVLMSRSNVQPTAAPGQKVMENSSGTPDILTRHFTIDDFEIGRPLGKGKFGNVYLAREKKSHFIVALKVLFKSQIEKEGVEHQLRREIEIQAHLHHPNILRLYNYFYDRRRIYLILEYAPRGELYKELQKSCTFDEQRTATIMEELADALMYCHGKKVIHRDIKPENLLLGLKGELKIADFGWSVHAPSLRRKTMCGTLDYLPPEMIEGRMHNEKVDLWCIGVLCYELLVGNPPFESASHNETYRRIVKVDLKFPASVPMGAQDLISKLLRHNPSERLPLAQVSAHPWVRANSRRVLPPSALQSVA
Description: AuroraB-Homogeneous Time Resolved Fluorescent (HTRF) Kinase Assay:
The AuroraB HTRF assay begins with AuroraB in the presence of ATP phosphorylating the biotinylated peptide Histone H3. The reaction incubates for about 90 min. the reaction is quenched by addition of detection reagents, which stop the reaction by diluting out the enzyme and chelating the metals due to the presence of EDTA. After addition, the assay is incubated for about 60 min to allow detection reagents to equilibrate.
The AuroraB HTRF assay comprises 1 μL of compound in 100% DMSO, 20 μL of ATP and biotinylated Histone H3, and 20 μL of AuroraB FL H is for a final volume of 41 μL. The final concentration of Histone H3 is 0.1 μM. […] Buffer conditions are as follows: 50 mM HEPES pH 7.5, 5 mM NaCl, 0.5 mM MgCl, 0.5 mM MnCl, 2 mM DTT, 0.05% BSA.
as §1, with “0.001” for “0.0005”, “anti-phosphoHistoneH3” for “anti-phosphoPLK”, “(Eu-anti-HisH3)” for “(Eu-anti-PLK)”, “0.064” for “0.02”
The assay plate is read in either a Discovery or a RubyStar. The eu-anti-HisH3 is excited at 320 nm and emits at 615 nm to excite the SA-APC which in turn emits at 655 nm.

| Compound | IC50 [1] [µM] | IC50 [2] [µM] |
| --- | --- | --- |
| N#Cc1cnc2c(Oc3ccc(Nc4nnc(-c5ccccc5)c5ccccc45)cc3)ccnc2c1 [Example 44, 8-(4-(4-phenylphthalazin-1-ylamino)phenoxy)-1,5-naphthyridine-3-carbonitrile] | 0.332 | 0.015 |
| Cn1cc(-c2ccc3nccc(Oc4ccc(Nc5nnc(-c6ccccc6)c6ccccc56)cc4)c3c2)cn1 [Example 45, N-(4-(6-(1-Methyl-1H-pyrazol-4-yl)quinolin-4-yloxy)phenyl)-4-phenylphthalazin-1-amine] | 0.079 | 0.03 |
| NC(=O)c1cc2nccc(Oc3ccc(Nc4nnc(-c5ccccc5)c5ccccc45)cc3)c2s1 [Example 46, 7-(4-(4-phenylphthalazin-1-ylamino)phenoxy)thieno[3,2-b]pyridine-2-carboxamide] | 0.015 | 0.001 |
| COc1ccc(F)cc1-c1nnc(Nc2ccc(Oc3ccnc4cc(C(N)=O)ccc34)cc2)c2ccccc12 [Example 47, 4-(4-(4-(5-fluoro-2-methoxyphenyl)phthalazin-1-ylamino)phenoxy)quinoline-7-carboxamide] | 5 | 0.138 |
| Oc1ccc2nccc(Sc3ccc(Nc4nnc(-c5ccc(Cl)cc5)c5ccccc45)cc3)c2c1 [Example 388, 4-(4-(4-(4-Chlorophenyl)phthalazin-1-ylamino)phenylthio)quinolin-6-ol] | 0.02 | 0.003 |
| COCCOCCOc1ccc2nccc(Sc3ccc(Nc4nnc(-c5ccc(Cl)cc5)c5ccccc45)cc3)c2c1 [Example 389, 4-(4-Chlorophenyl)-N-(4-(6-(2-(2-methoxyethoxy)ethoxy)quinolin-4-ylthio)phenyl)phthalazin-1-amine] | 0.021 | 0.022 |
| CS(=O)(=O)CCOc1ccc2nccc(Sc3ccc(Nc4nnc(-c5ccc(Cl)cc5)c5ccccc45)cc3)c2c1 [Example 390, 4-(4-Chlorophenyl)-N-(4-(6-(2-(methylsulfonyl)ethoxy)quinolin-4-ylthio)phenyl)phthalazin-1-amine] | > 125 | > 125 |
| Clc1ccc(-c2nnc(Nc3ccc(Sc4ccnc5ccoc45)cc3)c3ccccc23)nc1 [Example 391, 4-(5-Chloropyridin-2-yl)-N-(4-(furo[3,2-b]pyridin-7-ylthio)phenyl)phthalazin-1-amine] | 0.601 | 0.018 |
| COc1cc2nccc(Oc3ccc(Nc4nnc(-c5ccccc5)c5ccccc45)cc3)c2cc1C#N [Example 392, 7-Methoxy-4-(4-(4-phenylphthalazin-1-ylamino)phenoxy)quinoline-6-carbonitrile] | 0.159 | 0.26 |
| COCCOc1cc2nccc(Oc3ccc(Nc4nnc(-c5ccccc5)c5ccccc45)cc3)c2cc1OC [Example 393, N-(4-(6-Methoxy-7-(2-methoxyethoxy)quinolin-4-yloxy)phenyl)-4-phenylphthalazin-1-amine] | 0.013 | 0.017 |
| COc1cnc2c(Oc3ccc(Nc4nnc(-c5ccc(Cl)c(OCCS(C)(=O)=O)c5)c5ccccc45)cc3)ccnc2c1 [Example 394, 4-(4-Chloro-3-(2-(methylsulfonyl)ethoxy)phenyl)-N-(4-(7-methoxy-1,5-naphthyridin-4-yloxy)phenyl)phthalazin-1-amine] | 0.015 | 0.009 |
| Nc1ccc2nccc(Sc3ccc(Nc4nnc(-c5ccccc5)c5ccccc45)cc3)c2c1 [Example 399, N-(4-(6-Aminoquinolin-4-ylthio)phenyl)-4-phenylphthalazin-1-amine] | 0.286 | 0.025 |
| COc1cnc2c(Sc3ccc(Nc4nnc(OCCC5CCCCN5)c5ccccc45)cc3)ccnc2c1 (centres unmarked) [Example 403, N-(4-(7-Methoxy-1,5-naphthyridin-4-ylthio)phenyl)-4-(2-(piperidin-2-yl)ethoxy)phthalazin-1-amine] | 0.239 | 0.005 |
| O=c1ccc2nccc(Sc3ccc(Nc4nnc(-c5ccc(Cl)cn5)c5ccccc45)cc3)c2[nH]1 [Example 405, 8-(4-(4-(5-Chloropyridin-2-yl)phthalazin-1-ylamino)phenylthio)-1,5-naphthyridin-2(1H)-one] | 0.042 | 0.007 |
| Oc1cnc2c(Oc3ccc(Nc4nnc(-c5ccc(Cl)cc5)c5ccccc45)cc3)ccnc2c1 [Example 409, 8-(4-(4-(4-Chlorophenyl)phthalazin-1-ylamino)phenoxy)-1,5-naphthyridin-3-ol] | 0.02 | 0.005 |

Other lines, results leading:

| IC50 [1] [µM] | IC50 [2] [µM] | Compound |
| --- | --- | --- |
| 0.135 | 0.048 | FC(F)Oc1cnc2c(Sc3ccc(Nc4nnc(-c5ccccc5)c5ccccc45)cc3)ccnc2c1 [Example 387, N-(4-(7-(difluoromethoxy)-1,5-naphthyridin-4-ylthio)phenyl)-4-phenylphthalazin-1-amine] |
| 0.047 | 0.012 | COCCOc1cc(-c2nnc(Nc3ccc(Oc4ccnc5cc(OC)cnc45)cc3)c3ccccc23)ccc1C [Example 395, N-(4-(7-Methoxy-1,5-naphthyridin-4-yloxy)phenyl)-4-(3-(2-methoxyethoxy)-4-methylphenyl)phthalazin-1-amine] |
| 0.05 | > 125 | COc1cnc2c(Sc3ccc(Nc4nnc(-c5ccn(C)c(=O)c5)c5ccccc45)cc3)ccnc2c1 [Example 396, 4-(4-(4-(7-Methoxy-1,5-naphthyridin-4-ylthio)phenylamino)phthalazin-1-yl)-1-methylpyridin-2(1H)-one] |
| 1.73 | 0.059 | Cc1ccc(-c2nnc(Nc3ccc(Sc4ccnc5ccoc45)cc3)c3ccccc23)cc1F [Example 398, 4-(3-Fluoro-4-methylphenyl)-N-(4-(furo[3,2-b]pyridin-7-ylthio)phenyl)phthalazin-1-amine] |
| 0.847 | 0.052 | COc1cnc2c(Sc3ccc(Nc4nnc(C5=CCNCC5)c5ccccc45)cc3)ccnc2c1 [Example 401, N-(4-(7-Methoxy-1,5-naphthyridin-4-ylthio)phenyl)-4-(1,2,3,6-tetrahydropyridin-4-yl)phthalazin-1-amine] |
| 0.167 | 0.015 | COc1cnc2c(Sc3ccc(Nc4nnc(OC)c5ccccc45)cc3)ccnc2c1 [Example 402, 4-Methoxy-N-(4-(7-methoxy-1,5-naphthyridin-4-ylthio)phenyl)phthalazin-1-amine] |
| 0.447 | 0.009 | COc1cnc2c(Sc3ccc(Nc4nnc(C#N)c5ccccc45)cc3)ccnc2c1 [Example 404, 4-(4-(7-Methoxy-1,5-naphthyridin-4-ylthio)phenylamino)phthalazine-1-carbonitrile] |
| 0.034 | 0.186 | COc1cc2nccc(Sc3ccc(Nc4nnc(-c5ccc(Cl)cc5)c5ccccc45)cc3)c2[nH]c1=O [Example 406, 8-(4-(4-(4-Chlorophenyl)phthalazin-1-ylamino)phenylthio)-3-methoxy-1,5-naphthyridin-2(1H)-one] |
| 0.016 | 0.004 | COc1cnc2c(Oc3ccc(Nc4nnc(-c5cc(CO)cs5)c5ccccc45)cc3)ccnc2c1 [Example 407, (5-(4-(4-(7-Methoxy-1,5-naphthyridin-4-yloxy)phenylamino)phthalazin-1-yl)thiophen-3-yl)methanol] |
| 0.024 | 0.009 | COc1cnc2c(Oc3ccc(Nc4nnc(-c5cc(CF)cs5)c5ccccc45)cc3)ccnc2c1 [Example 408, 4-(4-(Fluoromethyl)thiophen-2-yl)-N-(4-(7-methoxy-1,5-naphthyridin-4-yloxy)phenyl)phthalazin-1-amine] |
